Results from patent US6399313B1, “AMPA-binding human GluR2 receptors” (NPS Allelix Corp., priority 1992, dated 2002).

Target: T1, human GluR2B receptor (Homo sapiens, UniProt P42262)
T1 construct: transported to the cell surface in mature form, lacking the signal peptide and consisting of 862 amino acids; expressed in transfected cells; host or cells: COS-1 (ATCC CRL 1650), transient, plasmid pcDNA1/humGluR2B
Test: ligand binding assay (NMDA) with membranes of cells producing human GluR2B
Details: method for NMDA not described

T1 sequence (P42262 25-883): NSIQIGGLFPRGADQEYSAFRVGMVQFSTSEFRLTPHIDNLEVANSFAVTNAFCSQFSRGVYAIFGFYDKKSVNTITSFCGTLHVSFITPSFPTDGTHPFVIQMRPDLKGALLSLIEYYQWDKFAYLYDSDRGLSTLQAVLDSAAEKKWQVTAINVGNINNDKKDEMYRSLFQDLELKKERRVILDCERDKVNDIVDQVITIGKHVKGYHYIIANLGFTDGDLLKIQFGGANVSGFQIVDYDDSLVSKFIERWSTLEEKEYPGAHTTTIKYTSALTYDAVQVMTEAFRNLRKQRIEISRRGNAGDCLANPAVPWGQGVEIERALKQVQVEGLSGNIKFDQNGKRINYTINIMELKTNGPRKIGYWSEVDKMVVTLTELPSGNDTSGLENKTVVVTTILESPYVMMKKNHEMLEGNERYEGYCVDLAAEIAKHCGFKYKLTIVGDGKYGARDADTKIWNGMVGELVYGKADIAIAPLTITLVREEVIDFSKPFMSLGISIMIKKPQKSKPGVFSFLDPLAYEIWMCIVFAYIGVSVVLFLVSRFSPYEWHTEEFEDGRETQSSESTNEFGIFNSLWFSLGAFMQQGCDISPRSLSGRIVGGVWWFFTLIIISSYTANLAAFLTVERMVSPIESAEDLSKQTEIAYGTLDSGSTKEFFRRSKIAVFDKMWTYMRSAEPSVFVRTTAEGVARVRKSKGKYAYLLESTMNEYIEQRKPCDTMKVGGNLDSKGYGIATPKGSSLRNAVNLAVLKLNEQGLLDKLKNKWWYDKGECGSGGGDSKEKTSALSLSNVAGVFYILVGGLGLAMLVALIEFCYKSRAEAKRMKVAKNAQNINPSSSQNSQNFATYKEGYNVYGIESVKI

Structure (SMILES): CN[C@H](CC(=O)O)C(=O)O [NMDA, N-methyl-D-aspartate]
- binding to human GluR2B receptor (in words): little or no demonstrable binding
